Experimental data as given in paper PMC6154745 (Oncotarget, 2018).
Marks after values point to notes of the source that are not given here.

Key:
[1] = Body weight, Study 3; format: in vivo, ICR (CD-1) mice; settings: in g
Excerpt: (§1) Each group was composed of 10 female mice.
Strain H neonatal mice, used in Study 1, were born at the Animal Laboratory of the National Center of Oncology (Sofia, Bulgaria). The mice were housed in Makrolon™ cages on sawdust bedding and maintained on standard rodent chow (Kostinbrod, Bulgaria) and allowed drinking water ad libitum. Swiss ICR (CD-1) mice, either neonatal (Study 2) or two- month old (Study 3), were purchased from Harlan Laboratories (San Pietro al Natisone, Udine, Italy). The mice were housed in Makrolon™ cages on sawdust bedding and maintained on standard rodent chow (Teklad 9607, Harlan Laboratories) and tap water ad libitum. The animal room temperature was 23 ± 2°C, with a relative humidity of 55% and a 12 h day-night cycle. Housing and treatments of mice were in accordance with NIH, European (2010/63 UE Directive), and institutional guidelines. The issuance of the NIH Office of Laboratory Animal Welfare (OLAW) with the University of Genoa bears the identification number A5899-01 and is effective until February 28, 2021. The Institutional Animal Care and Use Committee (IACUC) protocol was approved by the Fox Chase Cancer Center Committee on April 13, 2015.
Celecoxib was supplied by the US National Cancer Institute (NCI) via MRIGlobal (Kansas City, MO).
In Study 1 and Study 2, feeding of the drug-containing diet started after weanling (about 4 weeks) and continued until the 10th week of life.
(§2) Treatment-related differences in body weights, in the frequency of MN NCE, and in the levels of pulmonary DNA adducts and 8-oxo-dGuo, all of them expressed as means ± SE within each group of mice, were evaluated for statistical significance by ANOVA followed by Student's t test for unpaired data. miRNA microarray data, after local background subtraction, log transformation, and normalization were analyzed by GeneSpring software (Agilent, Santa Clara, CA), and expression data were median centered by using the GeneSpring normalization option.

[2] = test system: heart DNA; assay: Bulky DNA adducts by 32P postlabeling, Study 2, heart; format: in vivo, ICR (CD-1) mice; settings: for Bulky DNA adducts: Heart; for decrease of DNA adduct levels vs MCS-exposed mice without celecoxib / increase of DNA adduct levels over sham-exposed mice: heart
Method: as §1
(§3) DNA was extracted from tissue specimens (50 mg) collected individually from the lungs of 40 Swiss H mice used in Study 1 and from lungs, heart and liver of 80 ICR (CD-1) mice used in Study 2, as previously described. Bulky DNA adducts, after butanol enrichment, and 8-hydroxy-2’-deoxyguanosine (8-oxo-dGuo) were measured by ^32P postlabeling as previously described.

[3] = test system: lung DNA; assay: 8-oxo-dGuo (oxidative DNA damage) in lung by 32P postlabeling, Study 1; format: in vivo, Swiss H mice; settings: for 8-oxo-dGuo: lung
Method: as §1, §3

[4] = test system: colon miRNAs; assay: miRNA expression (microarray), Study 3, colon; format: in vivo, ICR (CD-1) mice
Method: as §1
(§4) The urine was collected for 8 h and pooled from the mice belonging to each experimental group in Study 3 by using metabolic cages during the day preceding euthanasia of mice. Immediately after sacrifice, a bronchoalveolar lavage (BAL) was performed and used for preparing BALF, and the blood was collected and used for preparing serum. BALF and blood serum were pooled within each experimental group. The organs reported in the general design of the studies were collected, as previously described. Immediately after collection, each organ or fluid was immersed in RNAlater and kept at -80°C for miRNA analysis. Portions of the organs used in Study 1 and Study 2 were stored at -80°C for evaluating DNA damage.
(§5) For evaluating the expression of pulmonary miRNAs we used the 7th generation miRCURY LNA™ microRNA Array (Exiqon), which contains 3,100 capture probes covering human, mouse and rat miRNAs. In particular, this array covers 1,135 mouse miRNAs, i.e. the 88.6% of the 1,281 mouse miRNAs listed in miRBase 19. Microarray analyses were carried out as previously described.
as §2

[5] = test system: pulmonary miRNAs; assay: Pulmonary miRNA expression (microarray), Study 1
Method: Ten mice per group (5 males and 5 females) were used. […] Twenty mice per group (10 males and 10 females) were used. […] Each group was composed of 10 female mice.
RNA was extracted from mouse organs (miRNeasy, Qiagen, Hilden, Germany) and body fluids (Exiqon's miRCURY™ RNA Isolation Kit – Biofluids (Exiqon, Vedbaek, Denmark) according to the manufacturers’ instructions. The quality of the RNA extracted was evaluated by spectrophotometric analyses using a fiber optic spectrophotometer (Nanodrop ND-1000).
For evaluating the expression of pulmonary miRNAs we used the 7th generation miRCURY LNA™ microRNA Array (Exiqon), which contains 3,100 capture probes covering human, mouse and rat miRNAs. In particular, this array covers 1,135 mouse miRNAs, i.e. the 88.6% of the 1,281 mouse miRNAs listed in miRBase 19. Microarray analyses were carried out as previously described [22].
Treatment-related differences in body weights, in the frequency of MN NCE, and in the levels of pulmonary DNA adducts and 8-oxo-dGuo, all of them expressed as means ± SE within each group of mice, were evaluated for statistical significance by ANOVA followed by Student's t test for unpaired data. miRNA microarray data, after local background subtraction, log transformation, and normalization were analyzed by GeneSpring software (Agilent, Santa Clara, CA), and expression data were median centered by using the GeneSpring normalization option. The statistical significance of the differences between experimental groups was evaluated by means of the GeneSpring ANOVA applied by using Bonferroni multiple testing correction. […] The overall variability of microarray data, as related to treatments, was evaluated by scatter-plot analysis (SPA), hierarchical cluster analysis (HCA), and principal component analysis (PCA).

[6] = test system: blood serum miRNAs; assay: miRNA expression (microarray), Study 3, blood serum; format: in vivo, ICR (CD-1) mice
Method: as §1, §4, §5, §2

[7] = test system: blood serum miRNAs; assay: Blood serum miRNAs (microarray), Study 1; format: in vivo, Swiss H mice
[8] = test system: lung DNA; assay: Bulky DNA adducts by 32P postlabeling, Study 2, lung; format: in vivo, ICR (CD-1) mice
Method: as §3

[9] = test system: BALF miRNAs; assay: miRNA expression (microarray), Study 3, BALF; format: in vivo, ICR (CD-1) mice
Method: as §1, §4, §5, §2

[10] = test system: spleen miRNAs; assay: miRNA expression (microarray), Study 3, spleen; format: in vivo, ICR (CD-1) mice
Method: as §1, §4, §5, §2

[11] = test system: kidney miRNAs; assay: miRNA expression (microarray), Study 3, kidney; format: in vivo, ICR (CD-1) mice
Method: as §1, §4, §5, §2

[12] = celecoxib in MCS-exposed mice vs MCS

Bulky DNA adducts ([2]; F): 3.6 ± 0.37^c adducts/10^8 nucleotides
Bulky DNA adducts ([2]; M): 3.3 ± 0.18^c adducts/10^8 nucleotides
Bulky DNA adducts ([2]; M + F): 3.4 ± 0.17^c adducts/10^8 nucleotides
increase of DNA adduct levels over sham-exposed mice ([2]; combined genders): 2.2 fold
increase of DNA adduct levels over sham-exposed mice ([2]; females): 2.4 fold
increase of DNA adduct levels over sham-exposed mice ([2]; males): 2.1 fold
Bulky DNA adducts ([8]; F): 3.7 ± 0.31^c adducts/10^8 nucleotides
Bulky DNA adducts ([8]; M): 4.4 ± 0.56^c adducts/10^8 nucleotides
Bulky DNA adducts ([8]; M + F): 4.0 ± 0.31^c adducts/10^8 nucleotides
increase of DNA adduct levels over sham-exposed mice ([8]; combined genders): 2.7 fold
increase of DNA adduct levels over sham-exposed mice ([8]; females): 2.5 fold
increase of DNA adduct levels over sham-exposed mice ([8]; males): 2.9 fold
autoradiographic spots formed ([8]; smoke-free mice): 3
SMILES: Cc1ccc(-c2cc(C(F)(F)F)nn2-c2ccc(S(N)(=O)=O)cc2)cc1 [Celecoxib, 4-[5-(4-methylphenyl)-3-(trifluoromethyl)-1H-pyrazol-1-yl] benzene-1-sulfonamide]
body weight ([1]; females, MCS-exposed, high dose celecoxib): 26.7 ± 0.56
body weight ([1]; females, MCS-exposed, low dose celecoxib): 30.9 ± 1.24
body weight ([1]; females, smoke-free, high dose (1,600 mg/kg diet)): 31.5 ± 0.98
body weight ([1]; females, smoke-free, low dose (20 mg/kg diet)): 32.6 ± 1.82
body weight ([1]; males, smoke-free, high dose (1,600 mg/kg diet)): 42.1 ± 0.61
decrease of DNA adduct levels vs MCS-exposed mice without celecoxib ([2]; combined genders): 1.3 fold
decrease of DNA adduct levels vs MCS-exposed mice without celecoxib ([2]; females): 1.5 fold
decrease of DNA adduct levels vs MCS-exposed mice without celecoxib ([2]; males (not statistically significant)): 1.1 fold
8-oxo-dGuo ([3]; F): 2.3 ± 0.28 8-oxo-dGuo/10^5 nucleotides
8-oxo-dGuo ([3]; M): 1.6 ± 0.29 8-oxo-dGuo/10^5 nucleotides
8-oxo-dGuo ([3]; M + F): 1.9 ± 0.22 8-oxo-dGuo/10^5 nucleotides
increase of pulmonary 8-oxo-dGuo levels vs sham-exposed mice ([3]; mouse, in vivo): did not affect
upregulated/downregulated miRNAs ([4]; MCS-exposed mice): 0/2
miR-185-5p downregulation ([4]; MCS-free mice): 8 fold
miR-301 downregulation ([4]; MCS-free mice): 6 fold
upregulated/downregulated miRNAs ([4]; MCS-free mice): 1/4
number of miRNAs modulated by celecoxib ([4]; high dose): 7
number of pulmonary miRNAs significantly dysregulated [5, 12]: 11
share of pulmonary miRNAs significantly dysregulated [5, 12]: 1.0%
number of pulmonary miRNAs downregulated ([5]; vs sham-exposed mice): 2
number of pulmonary miRNAs upregulated ([5]; vs sham-exposed mice): 19
upregulated/downregulated miRNAs ([6]; blood serum, MCS-exposed mice): 2/3
miR-1964-5p downregulation ([6]; blood serum, MCS-free mice): 8 fold
upregulated/downregulated miRNAs ([6]; blood serum, MCS-free mice): 2/11
number of miRNAs modulated by celecoxib ([6]; blood serum, high dose): 18
number of miRNAs modulated ([6]; blood serum, low dose): 2
miR30c-5p downregulation ([6]; blood serum, low dose (20 mg/kg diet) vs sham): 2.9 fold
miR-185 downregulation ([6]; blood serum, low dose (20 mg/kg diet), compared to MCS-exposed mice): 2.1 fold
number of miRNAs modulated ([6]; blood, high dose): 11
number of blood miRNAs on which the effect of MCS was counteracted ([7]; MCS-exposed mice given celecoxib): 7
number of miRNAs significantly modulated in blood serum ([7]; vs sham-exposed mice, 2-fold variation and P < 0.05): 18
decrease of DNA adduct levels vs MCS-exposed mice without celecoxib ([8]; combined genders): 1.6 fold
decrease of DNA adduct levels vs MCS-exposed mice without celecoxib ([8]; males): 1.5 fold
decrease of DNA adduct levels vs MCS-exposed mice without celecoxib ([8]; printed 'males' a second time): 1.7 fold
miR-1964-5p downregulation ([9]; MCS-exposed mice): 3 fold
upregulated/downregulated miRNAs ([9]; MCS-exposed mice): 0/2
miR-1964-5p downregulation ([9]; MCS-free mice): 6 fold
upregulated/downregulated miRNAs ([9]; MCS-free mice): 2/3
number of miRNAs modulated by celecoxib ([9]; high dose): 7
upregulated/downregulated miRNAs ([10]; MCS-exposed mice): 1/7
miR-30c-2-5p downregulation ([10]; MCS-free mice): 7 fold
upregulated/downregulated miRNAs ([10]; MCS-free mice): 2/7
number of miRNAs modulated by celecoxib ([10]; high dose): 17
upregulated/downregulated miRNAs ([11]; MCS-exposed mice): 0/0
miR-30c-2-3p downregulation ([11]; MCS-free mice): 14 fold
miR-30c-2-5p downregulation ([11]; MCS-free mice): 13 fold
miR-30e downregulation ([11]; MCS-free mice): 8 fold
miR-185-5p downregulation ([11]; MCS-free mice): 25 fold
miR-301 downregulation ([11]; MCS-free mice): 7 fold
miR-802-3p downregulation ([11]; MCS-free mice): 6 fold
miR-1964-5p downregulation ([11]; MCS-free mice): 7 fold
upregulated/downregulated miRNAs ([11]; MCS-free mice): 7/20
number of miRNAs modulated by celecoxib ([11]; high dose): 27
